Data: ChEMBL document CHEMBL1201862, “PubChem BioAssay data set” (2004)
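Following 48 hours of exposure in 96-well plates, responses at five concentrations were used to interpolate endpoints linearly. GI50 = concentration required for 50% inhibition of growth.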 Calls of active or inactive are those of the source. Cut-off read from the data, not from the text of the source: active = GI50 up to about 1.1 µM and inactive = higher.

What was measured:
Experiment in all cases: growth of human tumour cells (NCI), 48 h
[1] = system: 786-0
[2] = system: A498
[3] = system: COLO 205
[4] = system: DU-145
[5] = system: HOP-62
[6] = system: HOP-92
[7] = system: HT-29
[8] = system: M14
[9] = system: MCF7
[10] = system: MDA-MB-435
[11] = system: RPMI-8226
[12] = system: SF-539
[13] = system: SK-MEL-2
[14] = system: SN12C
[15] = system: SNB-19
[16] = system: SR
[17] = system: UO-31
[18] = system: HCT-15
[19] = system: NCI-H23
[20] = system: UACC-62

SMILES | GI50 [1] | GI50 [2] | GI50 [3] | GI50 [4] | GI50 [5] | GI50 [6] | GI50 [7] | GI50 [8] | GI50 [9] | GI50 [10] | GI50 [11] | GI50 [12] | GI50 [13] | GI50 [14] | GI50 [15] | GI50 [16] | GI50 [17] | GI50 [18] [µM] | GI50 [19] | GI50 [20]
O=c1c2cc(Br)cc(Br)c2[nH]c(=S)n1-c1ccc(/N=N/c2ccc(O)c3cccnc23)cc1 | 25.7 µM (inactive) | > 100 µM (inactive) | 32.1 µM (inactive) | 33 µM (inactive) | 33.3 µM (inactive) | 18 µM (inactive) | 39.6 µM (inactive) | 39.7 µM (inactive) | 12.9 µM (inactive) | 35.4 µM (inactive) | 33.9 µM (inactive) | 11.5 µM (inactive) | > 100 µM (inactive) | 44.5 µM (inactive) | 19.7 µM (inactive) | 3.61 µM (inactive) | 34.9 µM (inactive) |  |  | 
CC1/C=C/C=C/CC/C=C/C=C/C=C/C=C/C(OC2OC(C)C(O)C(N)C2O)CC2OC(CC(O)C(O)CCC(O)CC(O)CC(O)CC(=O)OC(C)C(C)C1O)CC(O)C2C(=O)O (configuration not stated) | 17 µM (inactive) | 18.7 µM (inactive) | 21.8 µM (inactive) | 17.7 µM (inactive) | 19.4 µM (inactive) | 45.6 µM (inactive) | 17.3 µM (inactive) | 19.7 µM (inactive) | 17.5 µM (inactive) | 17.6 µM (inactive) | 22.6 µM (inactive) | 16.1 µM (inactive) | 28.6 µM (inactive) | 15.9 µM (inactive) | 18.3 µM (inactive) | 16.9 µM (inactive) | 21 µM (inactive) | 27.3 | 18.1 µM (inactive) | 20.9 µM (inactive)
C[N+]1(C)C/C(=C\C=C\c2ccccc2)C(=O)/C(=C/C=C/c2ccccc2)C1 | 17.8 µM (inactive) | 60.1 µM (inactive) | 0.773 µM (active) | 17.2 µM (inactive) | 21.3 µM (inactive) | 17.9 µM (inactive) | 9.53 µM (inactive) | 16.3 µM (inactive) | 10.2 µM (inactive) | 4.28 µM (inactive) | 2.07 µM (inactive) | 7.55 µM (inactive) | 17 µM (inactive) | 7.69 µM (inactive) | 6.08 µM (inactive) | 3.1 µM (inactive) | 85.5 µM (inactive) | 40.2 | 9.71 µM (inactive) | 3.46 µM (inactive)
O=C(/C=C/c1ccccc1)CSc1nc2ccc(I)cc2c(=O)n1Cc1ccccc1 | 14.5 µM (inactive) | 14.3 µM (inactive) | 17.5 µM (inactive) | 15.2 µM (inactive) | 14.3 µM (inactive) | 5.55 µM (inactive) | 26.3 µM (inactive) | 55.1 µM (inactive) | 28.6 µM (inactive) | 38.9 µM (inactive) | 13.6 µM (inactive) | 39.9 µM (inactive) | 28.4 µM (inactive) | 9.86 µM (inactive) | 42.6 µM (inactive) | 8.81 µM (inactive) | 0.13 µM (active) | 19.5 | 18.1 µM (inactive) | 35.2 µM (inactive)
